Assay results: patent US20240343699A1, “DERIVATIVES OF SUBSTITUTED MORPHOLINES AND USES THEREOF” (Supernus Pharmaceuticals, Inc., priority 2023, published 2024)
Several values for one entry are separate records, joined by “and”; a condition that tells them apart may be missing. Equal entries are not always repeated. Where two headings read alike, the source gives them in different places.

How the values were obtained:
immobility = assay: Tail suspension test (TST)
Description: The tail suspension test is an experimental method used in scientific research to measure a state of being helpless in rodents, especially in mice. It is based on the observation that if a mouse is subjected to short term inescapable stress then the mouse will stop struggling. Immobility is quantified by measuring the amount of time lacking whole body activity.
The immobilized time in the last 4 min of the TST, which indicated depression-like behavior, was quantified using offline video manual scoring in a blinded manner.
Animals. Adult (7 to 8 weeks) male mice (C57Bl/6, Charles River Laboratories) were used in the study. Upon arrival, animals were group-housed (5/cage) with access to food and water ad libitum. Animals were maintained on a 12/12-hour light/dark cycle in a temperature—(22±2° C.) and humidity—(approx. 50%) controlled room. Animals were numbered consecutively by tail marks. Each cage was identified by a card indicating the study number, sex, animal numbers and date of birth.
Test article formulations were prepared fresh based on weight-to-volume in the vehicle on each dosing day. […] The appearance of the formulations was clear, with no precipitations. […] A vehicle group was included for comparison.
Monitoring. A piezoelectric sensor operated by the SmartCage system was utilized and video recording was conducted for scoring. After animals acclimated to the testing room, an individual mouse's tail was placed onto the piezoelectric sensor-board and the mouse was hung upside down, which signaled the immediate start of the recording of struggle activity, and it lasted for 6 min. The mouse was then taken off and returned to the home cage. The immobilized time, indicating depression-like behavior, was quantified using manual scoring of the video recordings for the period from 120 seconds to 360 seconds during TST. The percent immobility time was calculated: (immobility time/240 seconds)*100.
The immobilized time in the last 4 min of the TST, which indicates depression-like behavior, was quantified using offline video manual scoring in a blinded manner.
Animals. Adult (8 weeks, approximately 20-25 g) male mice (C57Bl/6, Vendor: Charles River Laboratories) were used in the study. Upon arrival, animals were group-housed (5/cage) with access to food and water ad libitum. Animals were maintained on a 12/12-hour light/dark cycle in a temperature—(22±2° C.) and humidity—(35-50%) controlled room. Animals were numbered consecutively by tail ID. Each cage was identified by a colored card indicating the study number, sex, animal numbers and date of birth.
Test article formulations were prepared fresh based on weight-to-volume in the vehicle on dosing day. […] The appearance of the formulations was clear, with no precipitations.
The tail suspension test is an experimental method used in scientific research to measure a state of being helpless in rodents, especially in mice. It is based on the observation that if a mouse is subjected to short term inescapable stress then the mice will give up struggling. “Immobility” is quantified by measuring the amount of time during which the animal has no whole-body activity.
Tail Suspension Test (TST). A piezoelectric sensor operated by the SmartCage system was utilized and video recording was conducted for scoring. Once animals were acclimated to the testing room, the TST was initiated by placing the tail of the test mouse onto the piezoelectric sensor-board and hanging the mouse upside down. The recording period was initiated once the mouse was upside down and lasted for 6 min. After the recording period, the mouse was removed from the recording device and returned to its home cage.

[1] = Preclinical PK after intraperitoneal dosing of COMPOUND D, COMPOUND B and viloxazine; format: in vivo, mouse; conditions: COMPOUND B IP 10.948 mg/kg; for concentration at 0.25 h / concentration at 0.5 h: read-out: Plasma concentration of COMPOUND B; for MRT last: read-out: MRT0-last, plasma COMPOUND B; for Tmax: read-out: Tmax, plasma COMPOUND B
cognitive flexibility = assay: Operant set-shifting test against PCP; format: in vivo, male Wistar rats
Description: This assay serves as a model of impaired executive function associated with neuropsychiatric disorders like schizophrenia. The aim of this study was to evaluate COMPOUND C to reverse deficits observed with PCP on cognitive flexibility using the operant set-shifting test in the rat.
Substances & Formulation.
Doses were prepared by separate weighing (W/V). COMPOUND C formulations were prepared fresh on each dosing day and dosing was completed within 8 hours of formulation. Phencyclidine (PCP) hydrochloride, white powder, was dissolved in physiological saline by magnetic stirring, fresh each day of dosing.
Test System. 78 male Wistar rats were supplied for this study. • 72 rats, 8-9 weeks old, weighing 218-299 g at the beginning of the visual discrimination were submitted to the entire behavioral testing and assigned to match groups based on their performance during the second visual discrimination session. • 6 spare rats were submitted to lever pressing, side bias and visual discrimination but were discarded for the testing period (set-shift and reversal)
The experimental protocol which detects effects on behavioral flexibility follows that described by Floresco et al. (Behav. Brain Res., 190, 85-96 (2008)).
Apparatus. The apparatus consists of standard Med Associates ENV-008 Skinner boxes (30×25×30 cm) fitted with a house light, two retractable levers and a food pellet dispenser. The levers are located on either side of the food receptacle connected to the pellet dispenser. A light emitting diode stimulus light is positioned centrally above each lever and served as a stimulus for visual-cue discrimination learning.
Acquisition of lever-pressing (training). The aim of this phase was to train animals to lever-press to receive a food pellet reward.
Side bias. On the last day of training, the side bias for the rat was determined. The session was similar to the lever pressing session except that both levers were inserted into the chamber together (i.e. 90 levers presentations every 20 seconds). Again, the stimulus lights above each of the levers were not illuminated during this training session. On the first levers presentation, a food pellet was delivered after responding on either lever. Upon subsequent insertion of the levers, food was delivered only if the rat responded on the lever opposite to the one chosen initially. If the rat chose the same lever to the initial choice, no food was delivered. This continued until the rat chose the lever opposite to the one chosen initially. After choosing both levers, a new trial commenced. Thus, one trial for the side bias procedure consisted of responded on both levers. The sessions terminated after 90 levers presentations or after completion of 21 trials.
Visual-cue discrimination learning. After determining the side bias, animals were submitted to visual-cue discrimination learning.
A session began with both levers retracted and the chamber in darkness (the inter-trial state). Every 20 seconds, a trial began with illumination of one of the stimulus lights above one of the levers. 3 seconds later, the house light was illuminated, and both levers were inserted into the chamber. […] After food delivery, the house light remained on for another 4 seconds, after which the chamber returned to the inter-trial state. If the rat responded on the other lever (incorrect response), both levers retracted immediately without food delivery and the chamber reverted to the inter-trial state.

[2] = format: in vitro ADME; conditions: Rat plasma, wet ice bath
Description: A study was conducted to examine the bioanalytical data for compounds in Rat plasma. […] Frozen Sprague Dawley rat (male pooled) and human (mixed gender) plasma was utilized for the study. Test compounds were dissolved in dimethyl sulfoxide (DMSO) to make a 10 mM stock solution. A working solution was made with MeOH/water. […]

[3] = format: in vitro ADME, mouse; conditions: mice Blood, wet ice bath, 5% Paraoxon ethyl as stabilizer; for % stability: 0.5 hr
[4] = Preclinical PK: plasma viloxazine after PO dosing of COMPOUND D or COMPOUND E; format: in vivo, mouse; conditions: COMPOUND E PO 20.99 mg/kg, individual mice
Description: A study was conducted for preclinical PK performance of COMPOUND D and COMPOUND E. Please see below for details on the study, with fasted mice orally dosed with COMPOUND D or COMPOUND E.
Relevant data are summarized in below tables (ND=Not determined (Parameters not determined due to inadequately defined terminal elimination phase. BQL=Below the lower limit of quantitation (LLOQ). If the adjusted rsq (linear regression coefficient of the concentration value on the terminal phase) is less than 0.9, T1/2 might not be accurately estimated. If the % AUCExtra>20%, AUC0-inf, Cl, MRT0-inf and Vdss might not be accurately estimated. If the % AUMCExtra>20%, MRT0-inf and Vdss might not be accurately estimated. a: Bioavailability (%) was calculated using AUC0-inf (% AUCExtra<20%) or AUC0-last (% AUCExtra>20%) with nominal dose)

[5] = mouse, plasma, ip, 10.948 mg/kg, individual mice
[6] = mouse, plasma, ip, 10.948 mg/kg, mean

CCOc1ccccc1OC[C@@H]1CN(C(=O)OC(C)OC(=O)[C@@H](N)C(C)C)CCO1 (stereo partly drawn) [COMPOUND A]
decrease of immobility compared to vehicle (immobility; COMPOUND A 32 mg/kg PO): 30%
percent immobility time (immobility; COMPOUND A 4, 8, 16, 32 mg/kg PO, ANOVA p=0.006): significant reduction in immobility

CCOc1ccccc1OC[C@@H]1CN(C(=O)OC(OC(=O)[C@@H](N)C(C)C)C(C)C)CCO1 (stereo partly drawn) [COMPOUND B]
Plasma concentration of COMPOUND B ([1]; 0.250 h, individual mice, 10.948 mg/kg): BQL and 17.7 ng/mL
Plasma concentration of COMPOUND B ([1]; 0.500 h, individual mice, 10.948 mg/kg): 4.88 ng/mL and 8.44 ng/mL
Plasma concentration of COMPOUND B ([1]; 1.00 h, individual mice): BQL
Plasma concentration of COMPOUND B ([1]; 2.00 h, individual mice): BQL
Plasma concentration of COMPOUND B ([1]; 4.00 h, individual mice): BQL
Plasma concentration of Viloxazine ([1]; 4.00 h, individual mice, 10.948 mg/kg): BQL
Plasma concentration of COMPOUND B ([1]; 8.00 h, individual mice): BQL
Plasma concentration of Viloxazine ([1]; 8.00 h, individual mice, 10.948 mg/kg): BQL
Plasma concentration of COMPOUND B ([1]; 24.0 h, individual mice): BQL
Plasma concentration of Viloxazine ([1]; 24.0 h, individual mice): BQL
Tlast, plasma COMPOUND B ([1]; individual mice): 0.500 h
AUC0-last, plasma COMPOUND B ([1]; individual mice, 10.948 mg/kg): 6.48 ng·h/mL and 1.22 ng·h/mL and 5.34 ng·h/mL
Cmax, plasma COMPOUND B ([1]; individual mice, 10.948 mg/kg): 25.4 ng/mL and 4.88 ng/mL and 17.7 ng/mL
MRT0-last, plasma COMPOUND B ([1]; individual mice, 10.948 mg/kg): 30 min and 18.8 min
Tmax, plasma COMPOUND B ([1]; individual mice, 10.948 mg/kg): 30 min and 15 min
Tlast, plasma COMPOUND B ([1]; mean): 0.500 h
concentration at 0.25 h ([1]; mouse, plasma, ip, 10.948 mg/kg, 0.250 h, individual mice): 25.4 ng/mL
concentration at 0.25 h ([1]; mouse, plasma, ip, 10.948 mg/kg, 0.250 h, mean): 21.6 ng/mL
concentration at 0.5 h ([1]; mouse, plasma, ip, 10.948 mg/kg, 0.500 h, individual mice): 5.75 ng/mL
concentration at 0.5 h ([1]; mouse, plasma, ip, 10.948 mg/kg, 0.500 h, mean): 6.36 ng/mL
MRT last [1, 5]: 17.9 min
Tmax [1, 5]: 15 min
AUC(0-t) ([1]; mouse, plasma, ip, 10.948 mg/kg, mean, read-out: AUC0-last, plasma COMPOUND B): 4.35 ng·h/mL
Cmax ([1]; mouse, plasma, ip, 10.948 mg/kg, mean, read-out: Cmax, plasma COMPOUND B): 16 ng/mL
MRT last [1, 6]: 22.3 min
Tmax [1, 6]: 20 min

CCOc1ccccc1OC[C@@H]1CN(C(=O)OC(OC(=O)[C@H](N)C(C)C)C(C)C)CCO1 (stereo partly drawn) [COMPOUND C]
number of omissions, post-hoc Dunnett (cognitive flexibility; COMPOUND C 120 mg/kg p.o. + PCP, first set-shift session): significant effects at the dose of 120 mg/kg
number of perseverative errors vs PCP controls (cognitive flexibility; COMPOUND C 40, 80, 120 and 160 mg/kg p.o. + PCP): did not significantly affect
number of trials to reach the criterion vs PCP controls (cognitive flexibility; COMPOUND C 40, 80, 120 and 160 mg/kg p.o. + PCP, first set-shift and first reversal sessions): did not significantly affect the number of trials to reach the criterion
omissions vs PCP-treated rats (cognitive flexibility; COMPOUND C 40-160 mg/kg p.o. + PCP): increased omissions
percent immobility time (immobility; COMPOUND C 30 mg/kg PO, dose-response study, vs vehicle): tendency in decreasing immobility
percent immobility time (immobility; COMPOUND C 30 mg/kg PO, follow-up study, vs vehicle (p=0.43)): no significant reduction in immobility
percent immobility time (immobility; COMPOUND C 10, 30, 60, 90 mg/kg PO 30 min prior, ANOVA across all doses): no significant reduction in immobility

CCOc1ccccc1OCC1CN(C(=O)OC(OC(=O)[C@@H](N)C(C)C)C(C)C)CCO1 (stereo partly drawn) [COMPOUND E]
Mean peak area ratio ([2]; 5% Paraoxon ethyl as stabilizer, HQC, 0 hr sample): 3.38
% stability ([2]; 5% Paraoxon ethyl as stabilizer, HQC, 1 hr): 79.5%
Mean peak area ratio ([2]; 5% Paraoxon ethyl as stabilizer, HQC, 1 hr sample): 2.69
% stability ([2]; 5% Paraoxon ethyl as stabilizer, HQC, 2 hr): 62.9%
Mean peak area ratio ([2]; 5% Paraoxon ethyl as stabilizer, HQC, 2 hr sample): 2.13
Mean peak area ratio ([2]; 5% Paraoxon ethyl as stabilizer, LQC, 0 hr sample): 0.00882
% stability ([2]; 5% Paraoxon ethyl as stabilizer, LQC, 1 hr): 68.3%
Mean peak area ratio ([2]; 5% Paraoxon ethyl as stabilizer, LQC, 1 hr sample): 0.00602
% stability ([2]; 5% Paraoxon ethyl as stabilizer, LQC, 2 hr): 63.7%
Mean peak area ratio ([2]; 5% Paraoxon ethyl as stabilizer, LQC, 2 hr sample): 0.00562
Mean peak area ratio ([2]; No stabilizer, HQC, 0 hr sample): 1.58
% stability ([2]; No stabilizer, HQC, 1 hr): 20.9%
Mean peak area ratio ([2]; No stabilizer, HQC, 1 hr sample): 0.33
% stability ([2]; No stabilizer, HQC, 2 hr): 2.5%
Mean peak area ratio ([2]; No stabilizer, HQC, 2 hr sample): 0.04
Mean peak area ratio ([2]; No stabilizer, LQC, 0 hr sample): 0.00472
% stability ([2]; No stabilizer, LQC, 1 hr): 28.2%
Mean peak area ratio ([2]; No stabilizer, LQC, 1 hr sample): 0.00133
% stability ([2]; No stabilizer, LQC, 2 hr): 5.3%
Mean peak area ratio ([2]; No stabilizer, LQC, 2 hr sample): 0.00025
Mean peak area ([3]; HQC, 0 hr sample): 2.903
% stability ([3]; HQC): 103%
Mean peak area ([3]; HQC, 0.5 hr sample): 3.00
Mean peak area ([3]; LQC, 0 hr sample): 0.00933
% stability ([3]; LQC): 86.3%
Mean peak area ([3]; LQC, 0.5 hr sample): 0.00806
Plasma concentration of Viloxazine ([4]; 8.00 h): BQL
Plasma concentration of Viloxazine ([4]; 24.0 h): BQL
